# Laboratory results reported in ChEMBL document CHEMBL1201862, “PubChem BioAssay data set” (2004).
# Activity calls are given as the source filed them.
# Legend:
# Cytochrome P450 2D6 = Cytochrome P450 2D6 (Homo sapiens, UniProt P10635);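 also: CYP2D6 member of a cytochrome P450 panel assay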
# Cytochrome P450 2C9 = Cytochrome P450 2C9 (Homo sapiens, UniProt P11712)
# Cytochrome P450 2C19 = Cytochrome P450 2C19 (Homo sapiens, UniProt P33261); test: Cytochrome panel assay with activity outcomes. Panel member name: p450-cyp2c19 Compounds with AC50 equal or less than 10 uM are considered active; type: functional
# Cytochrome P450 3A4 [1] = biological target: T1, Cytochrome P450 3A4 (Homo sapiens, UniProt P08684);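 also: CYP3A4 tested as one member of a cytochrome P450 panel screen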
# Cytochrome P450 3A4 [2] = biological target: T1, Cytochrome P450 3A4; remark: listed apart in the source
# HEK293 = test: cells; type: functional, cell-based; conditions: Homo sapiens
# [3] = biological target: T2, Nuclear receptor subfamily 0 group B member 1 (Homo sapiens, UniProt P51843); test: Luminescence-based cell-based high throughput dose response assay for inhibitors of the orphan nuclear receptor subfamily 0, group B, member 1 (DAX1; NR0B1). [Related pubchem assays (depositor defined):AID504766, AID504790]; type: functional
# T2 sequence (P51843 whole entry): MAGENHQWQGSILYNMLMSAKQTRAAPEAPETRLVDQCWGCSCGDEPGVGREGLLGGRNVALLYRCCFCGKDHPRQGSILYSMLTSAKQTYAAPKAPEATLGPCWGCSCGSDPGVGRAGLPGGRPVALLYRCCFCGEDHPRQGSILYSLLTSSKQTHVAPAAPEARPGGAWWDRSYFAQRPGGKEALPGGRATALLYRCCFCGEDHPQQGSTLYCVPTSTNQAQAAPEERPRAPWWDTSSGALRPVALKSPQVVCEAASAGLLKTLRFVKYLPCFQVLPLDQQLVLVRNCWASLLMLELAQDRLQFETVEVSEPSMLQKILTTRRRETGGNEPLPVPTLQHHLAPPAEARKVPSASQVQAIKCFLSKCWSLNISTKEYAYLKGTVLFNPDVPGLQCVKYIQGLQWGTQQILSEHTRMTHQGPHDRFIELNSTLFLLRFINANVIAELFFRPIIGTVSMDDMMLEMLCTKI
# HeLa = test: ATP-based viability loss in HeLa cells – cell-based, CellTiter-Glo luminescence, cherry-pick samples, cytotoxicity control for MITF activator project, dose response (AID 540259); type: functional; conditions: Homo sapiens
# Streptococcus = test: GAS UMAA2166 growth inhibition – luminescence, BacTiterGlo, counter-screen for streptokinase expression inhibitor project, dose response (AID 1915); type: functional, organism-based;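 also: potency for reduction of bacterial viability or growth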
# [4] = biological target: Induced myeloid leukemia cell differentiation protein Mcl-1 (Homo sapiens, UniProt Q07820); type: functional
# Streptokinase A = biological target: T3, Streptokinase A (Streptococcus pyogenes serotype M1, UniProt P10520); test: viability-normalized secreted streptokinase activity reduction – plasminogen activation absorbance, OD405, dose response (AID 1914); type: functional, Streptococcus pyogenes M1 GAS;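 also: secreted streptokinase activity via plasminogen activation per viability signal from cell pellet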
# T3 sequence (P10520 whole entry): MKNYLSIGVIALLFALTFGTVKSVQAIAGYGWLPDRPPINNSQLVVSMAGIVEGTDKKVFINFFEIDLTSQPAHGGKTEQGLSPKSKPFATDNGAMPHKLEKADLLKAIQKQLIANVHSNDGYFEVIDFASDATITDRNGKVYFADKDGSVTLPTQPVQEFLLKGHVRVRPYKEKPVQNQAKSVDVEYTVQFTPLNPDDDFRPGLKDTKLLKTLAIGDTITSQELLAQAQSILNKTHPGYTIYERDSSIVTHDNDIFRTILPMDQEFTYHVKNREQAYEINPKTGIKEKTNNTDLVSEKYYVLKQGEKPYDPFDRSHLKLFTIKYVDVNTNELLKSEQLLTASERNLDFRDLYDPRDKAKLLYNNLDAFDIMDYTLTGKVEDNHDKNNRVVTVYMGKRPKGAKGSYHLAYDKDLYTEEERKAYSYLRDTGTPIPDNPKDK
# [5] = biological target: T4, Small ubiquitin-related modifier 1 (Homo sapiens, UniProt P63165); test: SUMO1 protein interaction blockers, potency – biochemical, fluorescence polarization, uHTS hits, dose response (AID 624382); type: functional; conditions: read-out: IC50_Mean
# [6] = system: Streptococcus sp. 'group A'; test: Streptococcus pyogenes SK(-)GAS viability under kanamycin – luminescence, BacTiterGlo, confirmation, counter-screen for streptokinase expression inhibitor project, dose response (AID 1900); type: functional, organism-based
# [7] = biological target: T4, Small ubiquitin-related modifier 1; test: SUMO1 protein-protein binding blockers, potency – biochemical, FRET, dose response (AID 624383); type: functional; conditions: read-out: IC50_Mean
# [8] = decrease of insulin promoter-GFP reporter – imaging, high-content screening, mouse beta cells (AID 1628); type: functional; conditions: MIN6
# [9] = alpha-synuclein stem-loop luciferase translation blockers – H4 neuroglioma cells, luminescence, confirmation (AID 1988); type: functional, cell-based
# [10] = Luminescence Cell-Based Dose Retest to Confirm Inhibitors of Cancer Stem Cells. [Related pubchem assays (depositor defined):AID2717, AID2721]; type: functional; conditions: Homo sapiens
# cells [11] = type: functional, cell-based
# [12] = luciferase reporter signal suppression in cells – H4 neuroglioma cells, luminescence, dose response (AID 1990); type: functional, cell-based
# [13] = Luminescence Cell-Based Dose Response HTS to Identify Inhibitors of 5'UTR Stem-Loop Driven Prion Protein mRNA Translation in H4 Neuroglioblastoma Cells. [Related pubchem assays: 1827 (Project Summary), 1813 (Primary HTS)]; type: functional
# cells [14] = type: functional, cell-based; remark: listed apart in the source
# [15] = inhibition of ADAM10 peptide cleavage – biochemical, FRET peptide substrate, recombinant human ADAM10, selectivity assay for ADAM17 exosite inhibitor project, dose response (AID 743259);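 also: ADAM10 enzyme cleaving a FRET peptide substrate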
# [16] = biological target: Disintegrin and metalloproteinase domain-containing protein 17 (Homo sapiens, UniProt P78536); test: exosite inhibitors of ADAM17, dose response, biochemical (AID 743260)
# [17] = MIN6 cell viability loss – mouse insulinoma, cytotoxicity control, dose response (AID 2122); type: functional;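 also: confirmatory high-throughput counterscreen run to flag cytotoxic compounds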
# [18] = A cytotoxicity screen of small molecule inhibitors of the PhoP region in Salmonella typhi identified in the primary screen. [Related pubchem assays: 1850, 1864, 1985 ]; type: functional
# CAAX prenyl protease 2 = biological target: T5, CAAX prenyl protease 2 (Homo sapiens, UniProt Q9Y256); test: inhibition of Ras-converting CAAX protease Rce1 – biochemical, yeast membranes, quenched-peptide fluorescence, cherry-pick, dose response (AID 588849)
# T5 sequence (Q9Y256 whole entry): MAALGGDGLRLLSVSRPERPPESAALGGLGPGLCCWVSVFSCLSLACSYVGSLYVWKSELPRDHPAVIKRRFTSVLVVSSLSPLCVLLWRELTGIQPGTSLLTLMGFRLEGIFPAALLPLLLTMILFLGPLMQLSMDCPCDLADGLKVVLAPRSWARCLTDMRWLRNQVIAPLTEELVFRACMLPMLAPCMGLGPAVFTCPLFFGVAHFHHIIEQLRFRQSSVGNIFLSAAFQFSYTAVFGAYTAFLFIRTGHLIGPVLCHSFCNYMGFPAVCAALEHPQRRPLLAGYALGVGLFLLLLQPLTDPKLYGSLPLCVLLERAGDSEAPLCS
# [19] = biological target: T6, Rac GTPase-activating protein 1 (Homo sapiens, UniProt Q9H0H5); test: blockers of MgcRacGAP-driven Rac1 GTP hydrolysis – biochemical, ADP Hunter fluorescence, primary and confirmatory, confirmation (AID 624330); type: functional
# T6 sequence (Q9H0H5 whole entry): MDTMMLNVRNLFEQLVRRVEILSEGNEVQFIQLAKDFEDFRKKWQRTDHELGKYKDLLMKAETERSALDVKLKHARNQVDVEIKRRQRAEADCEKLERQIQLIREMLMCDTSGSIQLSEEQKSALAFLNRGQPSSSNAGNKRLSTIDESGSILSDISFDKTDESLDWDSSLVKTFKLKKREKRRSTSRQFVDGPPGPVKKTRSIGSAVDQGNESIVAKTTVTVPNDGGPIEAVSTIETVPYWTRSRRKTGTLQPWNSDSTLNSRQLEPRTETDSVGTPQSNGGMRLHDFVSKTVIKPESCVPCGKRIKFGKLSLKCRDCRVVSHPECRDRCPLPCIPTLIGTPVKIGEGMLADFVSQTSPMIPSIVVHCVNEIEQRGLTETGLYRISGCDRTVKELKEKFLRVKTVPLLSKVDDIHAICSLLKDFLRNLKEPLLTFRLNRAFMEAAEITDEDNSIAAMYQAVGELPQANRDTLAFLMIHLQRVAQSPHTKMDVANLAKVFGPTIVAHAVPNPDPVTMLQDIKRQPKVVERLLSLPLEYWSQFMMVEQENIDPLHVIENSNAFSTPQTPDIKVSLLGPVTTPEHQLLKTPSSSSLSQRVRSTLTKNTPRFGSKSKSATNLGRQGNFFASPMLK
# Trypsin = Trypsin (Sus scrofa, UniProt P00761); test: trypsin protease activity blockade – biochemical, quenched peptide fluorescence, cherry-pick, selectivity assay for Rce1 protease inhibitor project, dose response (AID 488789)
# [20] = biological target: FAD-linked sulfhydryl oxidase ALR (Homo sapiens, UniProt P55789); test: ALR-catalysed DTT oxidation blockers – biochemical, H2O2 detection, luminescence, cherry-pick, dose response (AID 493248)
# [21] = viability loss in HeLa cells – cytotoxicity control for MgcRacGAP inhibitor project, dose response (AID 624300); type: functional
# [22] = biological target: T7, Ubiquitin-conjugating enzyme E2 N (Homo sapiens, UniProt P61088); type: functional;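 also: Dose-response confirmation in a TR-FRET assay detecting UBC13-driven polyubiquitin chain formation, inhibition measured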
# T7 sequence (P61088 whole entry): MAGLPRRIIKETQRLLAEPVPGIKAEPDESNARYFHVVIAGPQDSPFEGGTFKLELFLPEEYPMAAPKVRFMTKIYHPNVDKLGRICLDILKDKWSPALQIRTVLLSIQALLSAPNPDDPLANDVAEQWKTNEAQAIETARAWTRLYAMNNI
# A-375 = test: proliferation inhibition in MITF-low A375 cells – cell-based, cherry-pick samples, set 2, counter-screen for MITF modulator project, dose response (AID 540335); type: functional; conditions: Homo sapiens
# Chain of Cytochrome P450 2D6 (P10635 whole entry): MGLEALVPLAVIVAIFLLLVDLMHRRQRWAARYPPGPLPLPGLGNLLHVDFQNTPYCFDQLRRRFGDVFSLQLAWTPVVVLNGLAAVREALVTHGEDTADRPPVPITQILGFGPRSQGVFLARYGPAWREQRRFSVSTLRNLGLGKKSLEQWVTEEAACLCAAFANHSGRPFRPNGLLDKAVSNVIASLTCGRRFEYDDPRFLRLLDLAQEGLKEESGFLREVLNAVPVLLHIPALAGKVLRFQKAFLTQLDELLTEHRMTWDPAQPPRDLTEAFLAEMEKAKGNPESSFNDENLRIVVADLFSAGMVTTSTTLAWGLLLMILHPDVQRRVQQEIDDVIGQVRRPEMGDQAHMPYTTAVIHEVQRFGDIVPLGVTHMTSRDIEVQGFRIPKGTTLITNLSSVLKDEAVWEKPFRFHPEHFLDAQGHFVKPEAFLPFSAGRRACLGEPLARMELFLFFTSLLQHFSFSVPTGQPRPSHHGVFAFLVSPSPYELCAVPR
# T1 sequence (P08684 whole entry): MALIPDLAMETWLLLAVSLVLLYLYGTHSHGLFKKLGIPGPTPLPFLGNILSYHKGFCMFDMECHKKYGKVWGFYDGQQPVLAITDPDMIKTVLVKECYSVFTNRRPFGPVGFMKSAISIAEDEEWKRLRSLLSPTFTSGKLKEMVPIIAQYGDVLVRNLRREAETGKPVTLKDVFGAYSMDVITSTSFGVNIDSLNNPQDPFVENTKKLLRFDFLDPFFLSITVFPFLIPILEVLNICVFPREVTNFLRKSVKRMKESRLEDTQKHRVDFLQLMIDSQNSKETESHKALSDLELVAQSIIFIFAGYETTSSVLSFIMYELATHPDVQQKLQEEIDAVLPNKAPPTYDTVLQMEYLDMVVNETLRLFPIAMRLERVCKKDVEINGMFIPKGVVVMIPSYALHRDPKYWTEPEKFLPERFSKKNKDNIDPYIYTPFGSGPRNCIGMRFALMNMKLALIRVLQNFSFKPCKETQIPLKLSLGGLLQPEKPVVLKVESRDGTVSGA
# Chain of Cytochrome P450 2C19 (P33261 whole entry): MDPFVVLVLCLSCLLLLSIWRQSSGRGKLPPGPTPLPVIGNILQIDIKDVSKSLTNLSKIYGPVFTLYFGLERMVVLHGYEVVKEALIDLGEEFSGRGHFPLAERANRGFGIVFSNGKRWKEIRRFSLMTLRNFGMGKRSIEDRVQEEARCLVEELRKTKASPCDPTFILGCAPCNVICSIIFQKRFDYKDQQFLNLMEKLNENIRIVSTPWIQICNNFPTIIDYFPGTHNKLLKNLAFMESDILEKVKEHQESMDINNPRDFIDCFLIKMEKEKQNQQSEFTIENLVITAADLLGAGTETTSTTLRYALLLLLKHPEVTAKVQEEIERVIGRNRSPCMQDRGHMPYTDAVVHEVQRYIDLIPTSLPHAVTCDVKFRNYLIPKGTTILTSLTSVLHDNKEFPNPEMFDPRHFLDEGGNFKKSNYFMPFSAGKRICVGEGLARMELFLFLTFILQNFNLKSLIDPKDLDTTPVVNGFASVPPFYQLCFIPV
# Chain of Cytochrome P450 2C9 (P11712 whole entry): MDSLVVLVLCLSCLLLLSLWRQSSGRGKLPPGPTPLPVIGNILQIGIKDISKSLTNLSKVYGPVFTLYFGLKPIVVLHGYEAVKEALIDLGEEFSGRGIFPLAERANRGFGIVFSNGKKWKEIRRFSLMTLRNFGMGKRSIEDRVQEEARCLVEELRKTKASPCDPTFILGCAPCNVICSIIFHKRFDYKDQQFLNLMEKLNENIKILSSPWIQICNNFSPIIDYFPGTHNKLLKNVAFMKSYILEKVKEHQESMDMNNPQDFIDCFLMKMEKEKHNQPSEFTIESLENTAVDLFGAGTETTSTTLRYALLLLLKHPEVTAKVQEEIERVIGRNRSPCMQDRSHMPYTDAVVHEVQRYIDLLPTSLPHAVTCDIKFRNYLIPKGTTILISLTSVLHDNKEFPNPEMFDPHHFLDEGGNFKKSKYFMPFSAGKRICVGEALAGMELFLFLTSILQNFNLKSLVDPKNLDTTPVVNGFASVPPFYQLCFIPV
# T4 sequence (P63165 whole entry): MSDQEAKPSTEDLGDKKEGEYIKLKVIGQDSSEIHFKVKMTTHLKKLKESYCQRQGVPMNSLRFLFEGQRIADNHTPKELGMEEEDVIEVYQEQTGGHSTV
# Chain of Induced myeloid leukemia cell differentiation protein Mcl-1 (Q07820 whole entry): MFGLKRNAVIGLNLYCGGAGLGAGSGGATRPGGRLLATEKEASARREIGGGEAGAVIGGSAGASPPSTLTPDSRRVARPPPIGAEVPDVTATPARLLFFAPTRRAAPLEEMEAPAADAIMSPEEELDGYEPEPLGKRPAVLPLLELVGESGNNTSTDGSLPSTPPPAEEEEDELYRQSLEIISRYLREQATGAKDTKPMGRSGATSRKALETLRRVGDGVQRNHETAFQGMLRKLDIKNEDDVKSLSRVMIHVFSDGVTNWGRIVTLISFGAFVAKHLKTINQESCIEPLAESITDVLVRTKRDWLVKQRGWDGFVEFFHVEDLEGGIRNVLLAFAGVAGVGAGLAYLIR
# Chain of Trypsin (P00761 whole entry): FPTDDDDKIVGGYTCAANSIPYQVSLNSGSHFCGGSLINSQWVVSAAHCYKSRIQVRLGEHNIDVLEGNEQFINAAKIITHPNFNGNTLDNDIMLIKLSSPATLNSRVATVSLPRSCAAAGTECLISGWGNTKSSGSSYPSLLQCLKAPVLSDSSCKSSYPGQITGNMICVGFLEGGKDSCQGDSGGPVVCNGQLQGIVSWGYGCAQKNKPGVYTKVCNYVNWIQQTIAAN
# Chain of Disintegrin and metalloproteinase domain-containing protein 17 (P78536 whole entry, the tested form may be a part): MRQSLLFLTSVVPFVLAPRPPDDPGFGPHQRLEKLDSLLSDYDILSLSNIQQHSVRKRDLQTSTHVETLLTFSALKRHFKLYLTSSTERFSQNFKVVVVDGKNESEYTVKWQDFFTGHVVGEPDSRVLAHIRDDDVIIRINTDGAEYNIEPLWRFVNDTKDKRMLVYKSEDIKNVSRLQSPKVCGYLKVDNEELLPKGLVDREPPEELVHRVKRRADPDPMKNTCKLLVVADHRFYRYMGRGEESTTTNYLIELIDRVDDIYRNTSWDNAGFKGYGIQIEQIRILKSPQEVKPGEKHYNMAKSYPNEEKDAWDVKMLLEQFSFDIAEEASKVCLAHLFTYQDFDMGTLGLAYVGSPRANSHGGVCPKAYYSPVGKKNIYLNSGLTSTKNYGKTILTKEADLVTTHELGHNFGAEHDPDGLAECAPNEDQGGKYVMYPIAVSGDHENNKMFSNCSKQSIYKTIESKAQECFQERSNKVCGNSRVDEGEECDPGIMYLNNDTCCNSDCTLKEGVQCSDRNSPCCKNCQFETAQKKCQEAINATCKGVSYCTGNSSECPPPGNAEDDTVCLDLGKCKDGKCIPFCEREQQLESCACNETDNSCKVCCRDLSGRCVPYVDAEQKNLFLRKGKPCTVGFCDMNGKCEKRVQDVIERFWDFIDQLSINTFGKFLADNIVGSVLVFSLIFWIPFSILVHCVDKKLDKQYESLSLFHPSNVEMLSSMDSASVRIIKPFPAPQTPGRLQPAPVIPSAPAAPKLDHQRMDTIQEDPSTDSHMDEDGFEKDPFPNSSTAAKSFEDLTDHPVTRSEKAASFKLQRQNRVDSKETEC
# Chain of FAD-linked sulfhydryl oxidase ALR (P55789 whole entry): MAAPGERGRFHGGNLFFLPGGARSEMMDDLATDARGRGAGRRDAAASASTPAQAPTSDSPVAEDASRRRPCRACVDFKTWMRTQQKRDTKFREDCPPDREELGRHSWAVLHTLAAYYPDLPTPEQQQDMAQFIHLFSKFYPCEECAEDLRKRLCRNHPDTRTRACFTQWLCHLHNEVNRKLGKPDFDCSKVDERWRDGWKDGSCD
structure (smiles),measurement,setting,value
CCOC(=O)c1ccc(NC(=O)C(=O)NCC2CCCO2)cc1 (stereo not drawn),AC50,Cytochrome P450 2D6,inconclusive
same,AC50,Cytochrome P450 2C9,25.1 µM (inconclusive)
same,AC50,Cytochrome P450 2C19; read-out: AC50,31.6 µM (inconclusive)
Cc1cc(C)nc(SCC(=O)N/N=C\c2sccc2C)n1,AC50,Cytochrome P450 3A4 [1],15.8 µM (inconclusive)
same,AC50,Cytochrome P450 2D6,inconclusive
c1ccc2cc(Sc3ncnc4c3oc3ccccc34)ccc2c1,AC50,Cytochrome P450 3A4 [2],inconclusive
O=C(c1ccccc1C(F)(F)F)N1CCN(S(=O)(=O)c2ccccc2)CC1,IC50,HEK293,> 67.6 µM (inactive)
same,IC50,[3],> 67.6 µM (inactive)
CSc1nc2nc3c(c(O)n2n1)CN(Cc1ccccc1)CC3,AC50,Cytochrome P450 3A4 [2],inconclusive
same,AC50,Cytochrome P450 2C9,15.8 µM (inconclusive)
COc1ccc(-c2cn3cccc(C)c3n2)cc1F,AC50,HeLa,> 350 µM (inactive)
COc1ccc(-c2cc3nc4ccccc4n3c(N)c2C#N)cc1,AC50,HeLa,143 µM (active)
same,EC50,Streptococcus,15.7 µM (active)
same,IC50,[4],2.52 µM (active)
same,EC50,Streptokinase A,> 150 µM (not active)
same,IC50,[5],> 66.6 µM (inactive)
same,EC50,[6],1.45 µM (active)
same,IC50,[7],7.98 µM (active)
O=C(NC(CSCc1ccccc1)C(=O)N/N=C/c1ccc(O)cc1O)c1ccc([N+](=O)[O-])cc1 (stereo not drawn),IC50,[8],2.19 µM (active)
same,EC50,[9],5.27 µM (active)
same,AC50,[10],3 µM (active)
same,EC50,cells [11],9.52 µM (active)
same,EC50,[12],6.53 µM (inconclusive)
same,EC50,[13],10.9 µM (active)
same,EC50,cells [14],> 350 µM (not active)
same,IC50,[15],> 69.5 µM (inactive)
same,IC50,[16],> 69.5 µM (inactive)
same,IC50,[17],3.07 µM (active)
COC(=O)c1cccc2c1NC(=O)C2=O,IC50,HEK293,> 67.6 µM (inactive)
same,IC50,[3],> 67.6 µM (inactive)
Cc1ccc(NC(=O)NNC(=O)C2CC(c3cccnc3)=NO2)cc1 (stereo not drawn),AC50,Cytochrome P450 2D6,inconclusive
same,AC50,Cytochrome P450 2C19,inconclusive
Cc1nc(N2CCOCC2)c2c(C)c(C(=O)Nc3ccccc3C(F)(F)F)sc2n1,EC50,[18],> 50 µM (active)
same,AC50,CAAX prenyl protease 2,15 µM (active)
Nc1ccc2[nH]c(-c3ccccc3)nc2c1,IC50,[19],30.2 µM (active)
same,AC50,Trypsin,3.48 µM (active)
same,AC50,CAAX prenyl protease 2,2.12 µM (active)
same,AC50,[20],2.19 µM (active)
same,CC50,[21],100 µM (active)
NCCc1ccc(OCc2ccccc2)c(OCc2ccccc2)c1,AC50,[10],11.2 µM (active)
same,IC50,[22],> 20 µM (inactive)
same,AC50,A-375,30.2 µM (active)
O=C(c1cccc(F)c1)N1CCC2(CCN(Cc3nccs3)CC2)CC1,AC50,Cytochrome P450 3A4 [2],inconclusive
